Measurements: publication PMC3433420 (PLoS ONE, 2012)
Residues, ends and D or L forms follow the SMILES beside them.

Tests used:
[1] = target: T1, PIK3R1-C SH2 domain (Homo sapiens, UniProt P27986); assay: FP saturation binding assay; conditions: protein PIK3R1-C, high-confidence ErbB interactions, mean of replicate hits
T1 construct: 6X His; thioredoxin; made in house; host or cells: E. coli BL21(DE3)pLysS
In short: (§1)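 Rhodamine-labeled peptides (10 nM final) were titrated with 12 SH2 domain concentrations (0.002–10 µM) in 20 mM HEPES, 100 mM KCl, 0.1% Tween-20, 5 mM DTT, pH 7.8. After 20 min at room temperature in the dark, FP (ex 530/em 555 nm) was read. KDs came from nonlinear least-squares fits.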

[2] = target: T2, PIK3R3-N SH2 domain (Homo sapiens, UniProt Q92569); assay: FP saturation binding assay; conditions: high-confidence ErbB interactions
T2 construct: 6X His; thioredoxin; made in house; host or cells: E. coli BL21(DE3)pLysS
In short: as §1

[3] = target: T3, PIK3R3-NC tandem SH2 domains (Homo sapiens, UniProt Q92569); assay: FP saturation binding assay; conditions: protein PIK3R3-NC; FP, high-confidence ErbB interactions; mean of replicate hits
T3 construct: the tandem protein was included in our analysis with all internal amino acids linking the domains; 6X His; thioredoxin; made in house; host or cells: E. coli BL21(DE3)pLysS
In short: as §1

[4] = target: T4, PIK3R3-C SH2 domain (Homo sapiens, UniProt Q92569); assay: biochemical; assay type: binding; conditions: protein PIK3R3-C; FP, high-confidence ErbB interactions; mean of replicate hits
T4 construct: thioredoxin; made in house; host or cells: E. coli BL21(DE3)pLysS

[5] = target: T5, PIK3R1-N SH2 domain (Homo sapiens, UniProt P27986); assay: biochemical; assay type: binding; conditions: protein PIK3R1-N; FP, high-confidence ErbB interactions; mean of replicate hits
T5 construct: thioredoxin; made in house; host or cells: E. coli BL21(DE3)pLysS

[6] = target: GRB7 SH2 domain (Homo sapiens, UniProt Q14451); assay: FP saturation binding assay; conditions: Mean KD (μM), protein GRB7; FP, high-confidence ErbB interactions; mean of replicate hits
[7] = target: T6, PIK3R1-NC tandem SH2 domains (Homo sapiens, UniProt P27986); assay: FP saturation binding assay; conditions: protein PIK3R1-NC; FP, high-confidence ErbB interactions; mean of replicate hits
T6 construct: the tandem protein was included in our analysis with all internal amino acids linking the domains; 6X His; thioredoxin; made in house; host or cells: E. coli BL21(DE3)pLysS
In short: as §1

[8] = target: PIK3R2-N SH2 domain (Homo sapiens, UniProt O00459); assay: FP saturation binding assay
[9] = target: T7, PTK6 SH2 domain (Homo sapiens, UniProt Q13882); assay: FP saturation binding assay; conditions: Protein PTK6; FP saturation binding, high-confidence ErbB interactions; mean over replicate hits
T7 construct: from the PTK6 SH2 domain; 6X His; thioredoxin; made in house; host or cells: E. coli BL21(DE3)pLysS
In short: as §1

[10] = target: T8, RASA1-NC tandem SH2 domains (Homo sapiens, UniProt P20936); assay: FP saturation binding assay; conditions: Protein RASA1-NC; FP saturation binding, high-confidence ErbB interactions; mean over replicate hits
T8 construct: the tandem protein was included in our analysis with all internal amino acids linking the domains; 6X His; thioredoxin; made in house; host or cells: E. coli BL21(DE3)pLysS
T8 sequence (P20936 181-441 limits assumed): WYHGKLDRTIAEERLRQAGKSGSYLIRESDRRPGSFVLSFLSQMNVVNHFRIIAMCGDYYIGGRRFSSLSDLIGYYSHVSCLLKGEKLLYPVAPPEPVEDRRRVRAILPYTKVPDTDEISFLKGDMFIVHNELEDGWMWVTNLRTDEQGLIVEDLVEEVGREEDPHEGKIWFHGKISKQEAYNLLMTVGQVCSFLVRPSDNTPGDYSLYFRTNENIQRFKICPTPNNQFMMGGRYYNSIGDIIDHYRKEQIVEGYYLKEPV
In short: as §1

[11] = target: PIK3R2-NC tandem SH2 domains (Homo sapiens, UniProt O00459); assay: FP saturation binding assay
[12] = target: T9, RASA1-N SH2 domain (Homo sapiens, UniProt P20936); assay: FP saturation binding assay
T9 sequence (P20936 181-272 limits assumed): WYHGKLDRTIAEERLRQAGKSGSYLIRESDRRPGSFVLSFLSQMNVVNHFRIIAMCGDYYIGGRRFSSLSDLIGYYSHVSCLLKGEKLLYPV

T5 sequence (P27986 333-428 limits assumed): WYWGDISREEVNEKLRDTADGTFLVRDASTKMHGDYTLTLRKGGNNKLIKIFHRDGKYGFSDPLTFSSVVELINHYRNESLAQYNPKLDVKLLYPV
T1 sequence (P27986 624-718 limits assumed): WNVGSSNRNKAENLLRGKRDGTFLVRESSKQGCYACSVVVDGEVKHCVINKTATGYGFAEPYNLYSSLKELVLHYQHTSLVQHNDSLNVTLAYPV
Sequence of PIK3R2-N SH2 domain (O00459 330-425 limits assumed): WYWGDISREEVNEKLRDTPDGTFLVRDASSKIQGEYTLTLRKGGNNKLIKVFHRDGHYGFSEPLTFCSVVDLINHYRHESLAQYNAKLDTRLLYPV
T7 sequence (Q13882 78-170 limits assumed): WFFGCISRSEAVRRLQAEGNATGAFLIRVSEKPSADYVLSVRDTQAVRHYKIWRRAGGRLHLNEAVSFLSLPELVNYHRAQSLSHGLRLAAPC
T6 sequence (P27986 333-718 limits assumed): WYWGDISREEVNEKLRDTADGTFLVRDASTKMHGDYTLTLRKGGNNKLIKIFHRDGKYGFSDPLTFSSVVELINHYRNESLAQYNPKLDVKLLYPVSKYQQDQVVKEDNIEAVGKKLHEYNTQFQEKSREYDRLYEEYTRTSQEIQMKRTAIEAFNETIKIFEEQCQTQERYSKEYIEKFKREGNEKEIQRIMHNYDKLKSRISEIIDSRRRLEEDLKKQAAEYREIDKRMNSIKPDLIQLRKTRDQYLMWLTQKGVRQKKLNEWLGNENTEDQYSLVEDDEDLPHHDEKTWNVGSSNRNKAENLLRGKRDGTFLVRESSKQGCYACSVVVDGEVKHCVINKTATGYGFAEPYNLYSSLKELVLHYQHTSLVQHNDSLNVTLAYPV
Sequence of PIK3R2-NC tandem SH2 domains (O00459 330-716 limits assumed): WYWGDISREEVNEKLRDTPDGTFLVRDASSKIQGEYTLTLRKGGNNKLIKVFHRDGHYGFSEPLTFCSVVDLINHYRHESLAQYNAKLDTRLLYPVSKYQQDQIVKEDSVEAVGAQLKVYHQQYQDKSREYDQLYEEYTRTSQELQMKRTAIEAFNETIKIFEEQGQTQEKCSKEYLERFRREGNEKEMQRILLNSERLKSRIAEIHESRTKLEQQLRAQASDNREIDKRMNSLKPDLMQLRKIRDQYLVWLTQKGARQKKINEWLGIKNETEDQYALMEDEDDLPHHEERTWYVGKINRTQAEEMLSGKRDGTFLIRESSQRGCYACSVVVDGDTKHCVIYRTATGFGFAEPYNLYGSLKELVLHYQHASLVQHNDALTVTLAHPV
Sequence of GRB7 SH2 domain (Q14451 431-527 limits assumed): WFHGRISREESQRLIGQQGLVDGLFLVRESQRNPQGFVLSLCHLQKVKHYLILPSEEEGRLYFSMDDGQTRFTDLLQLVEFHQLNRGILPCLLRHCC

| SMILES | Kd [1] [nM] | Kd ([2]; protein PIK3R3-N, FP, mean of replicate hits) [nM] | Kd [3] [nM] | Kd [4] [nM] | Kd [5] [nM] | Kd [6] [µM] | Kd [7] [nM] | Kd [8] [nM] | Kd [9] [nM] | Kd ([2]; Protein PIK3R3-N, FP saturation binding, mean over replicate hits) [nM] | Kd [10] [nM] | Kd [11] [nM] | Kd [12] [nM] |
| --- | --- | --- | --- | --- | --- | --- | --- | --- | --- | --- | --- | --- | --- |
| CSCC[C@H](NC(=O)[C@H](C)NC(=O)[C@H](C)NC(=O)[C@H](Cc1ccc(OP(=O)(O)O)cc1)NC(=O)[C@H](CC(=O)O)NC(=O)CNC(=O)CNC(=O)[C@@H]1CCCN1)C(=O)NCC(=O)N[C@@H](C)C(=O)N[C@@H](CS)C(=O)N1CCC[C@H]1C(=O)N[C@@H](CC(=O)O)C(=O)O [ErbB3 1276 13-mer] (HELM PEPTIDE1{P.G.G.D.[O=C([C@H](Cc1ccc(OP(=O)(O)O)cc1)N[*:1])[*:2]].A.A.M.G.A.C.P.D}$$$$V2.0) | 2300 | 2460 | 3710 | 9860 | 6000 |  |  |  |  |  |  |  |  |
| CSCC[C@H](NC(=O)[C@H](Cc1ccc(O)cc1)NC(=O)[C@H](CCC(=O)O)NC(=O)[C@H](Cc1ccc(OP(=O)(O)O)cc1)NC(=O)[C@H](CC(=O)O)NC(=O)[C@H](CCC(=O)O)NC(=O)[C@H](CC(=O)O)NC(=O)[C@@H]1CCCN1)C(=O)N[C@@H](CC(N)=O)C(=O)N[C@@H](CCCNC(=N)N)C(=O)N[C@@H](CCC(N)=O)C(=O)N[C@@H](CCCNC(=N)N)C(=O)N[C@@H](CC(=O)O)C(=O)O [ErbB3 1260 13-mer] (HELM PEPTIDE1{P.D.E.D.[O=C([C@H](Cc1ccc(OP(=O)(O)O)cc1)N[*:1])[*:2]].E.Y.M.N.R.Q.R.D}$$$$V2.0) | 470 |  |  |  | 480 | 0.1 |  |  |  |  |  |  |  |
| CSCC[C@H](NC(=O)[C@@H]1CCCN1C(=O)[C@@H](NC(=O)[C@H](Cc1ccc(OP(=O)(O)O)cc1)NC(=O)[C@H](C)NC(=O)[C@@H]1CCCN1C(=O)[C@@H]1CCCN1C(=O)[C@@H]1CCCN1)[C@@H](C)O)C(=O)N[C@@H](CO)C(=O)NCC(=O)N[C@@H](CC(N)=O)C(=O)N[C@@H](CCC(N)=O)C(=O)N[C@@H](CC(=O)O)C(=O)O [ErbB4 1056 13-mer] (HELM PEPTIDE1{P.P.P.A.[O=C([C@H](Cc1ccc(OP(=O)(O)O)cc1)N[*:1])[*:2]].T.P.M.S.G.N.Q.D}$$$$V2.0) | 160 |  | 230 |  | 2570 |  | 210 | 2960 |  |  |  |  |  |
| CC[C@H](C)[C@H](NC(=O)[C@H](CC(C)C)NC(=O)[C@H](Cc1ccc(OP(=O)(O)O)cc1)NC(=O)[C@H](CCC(=O)O)NC(=O)[C@H](CC(=O)O)NC(=O)[C@H](C)NC(=O)[C@@H](N)CC(=O)O)C(=O)N1CCC[C@H]1C(=O)N[C@@H](CCC(N)=O)C(=O)N[C@@H](CCC(N)=O)C(=O)NCC(=O)N[C@@H](Cc1ccccc1)C(=O)N[C@@H](CC(=O)O)C(=O)O [ErbB1 1016 13-mer] |  |  |  |  |  |  |  | 2480 | 3040 | 3210 | 1100 | 2430 | 1670 |
